Laboratory results: publication PMC6514978, “Synthesis, Antibacterial Activities, Mode of Action and Acute Toxicity Studies of New Oxazolidinone-Fluoroquinolone Hybrids” (Molecules, 2019)
In brackets after ≈: the same amount, converted by molar mass. One block for each compound: values may come before it.

Experiments:
[1] = tested on: S. agalactiae^R (13B317), levofloxacin-resistant S. agalactiae; assay: MIC, broth microdilution (CLSI), clinical isolate; type: cell-based; conditions: Streptococcus agalactiae; levofloxacin-resistant S. agalactiae (13B317)
From the text: (§1) 6 standard strains and 3 clinical isolates were used to the preliminary evaluation of in vitro antibacterial activities of oxazolidinone-fluoroquinolone hybrids. For the further evaluation of hybrids OBP-4 and OBP-5, 263 clinical isolates including S. aureus (46), S. haemolyticus(32), S. epidermidis (10), E. faecalis (72), E. faecium (47), S. pneumoniae (13), H. parasuis (34), S. suis (9), and 8 resistant strains including MRSA, MRSE, CIP-resistant S. aureus and S. haemolyticus, VAN and quinolone-resistant S. pneumoniae, LZD-resistant E. faecalis, LZD/VAN and quinolone-resistant E. faecium were collected and tested.
(§2) Susceptibility testing of oxazolidinone-fluoroquinolone hybrids against various bacteria was performed by the broth microdilution method as outlined by the Clinical and Laboratory Standards Institute (CLSI). Three types of media, including cation-adjusted Mueller Hinton broth, Haemophilus Test Medium and cation-adjusted Mueller Hinton broth that contained 3%–5% lysed horse blood, were used to culture the corresponding bacteria. All compounds including comparator drugs were dissolved in an appropriate solvent at a concentration of 2.048 mg/mL and then serially diluted two-fold to provide the required concentrations. A final inoculum of 5 × 10^5 CFU/mL was used and plates were read after incubation for 16–24 h at 35 °C. […] Standard quality control strains (ATCC) were included throughout. Each determination was repeated in triplicate.

MRSA (13B262) = assay: MIC, broth microdilution (CLSI), clinical isolate; type: cell-based; conditions: Staphylococcus aureus
From the text: as §1, §2

VRE (13B330) = assay: MIC, broth microdilution (CLSI), clinical isolate; type: cell-based, vancomycin-resistant enterococcus; conditions: Enterococcus
From the text: as §1, §2

[2] = tested on: H. influenzae (ATCC49247); assay: MIC, broth microdilution (CLSI), standard strain; type: cell-based; conditions: Haemophilus influenzae
From the text: as §1, §2

[3] = tested on: P. Aeruginosa (ATCC27853); assay: MIC, broth microdilution (CLSI), standard strain; type: cell-based; conditions: Pseudomonas aeruginosa; P. Aeruginosa (ATCC27853); read-out: MIC
From the text: as §1, §2

E. coli (ATCC25922) = assay: MIC, broth microdilution (CLSI), standard strain; type: cell-based; conditions: Escherichia coli; E. coli (ATCC25922); read-out: MIC
From the text: as §1, §2

S. aureus (ATCC29213) = assay: MIC, broth microdilution (CLSI), standard strain; type: cell-based; conditions: Staphylococcus aureus
From the text: as §1, §2

[4] = tested on: S. pneumoniae (ATCC49619); assay: MIC, broth microdilution (CLSI), standard strain; type: cell-based; conditions: Streptococcus pneumoniae
From the text: as §1, §2

E. faecalis (ATCC29212) = assay: MIC, broth microdilution (CLSI), standard strain; type: cell-based; conditions: Enterococcus faecalis; E. faecalis (ATCC29212); read-out: MIC
From the text: as §1, §2

[5] = tested on: H. parasuis (34) clinical isolates; assay: Susceptibility of clinical isolates (MIC); type: cell-based, Haemophilus parasuis; conditions: Glaesserella parasuis
Description: as §2, with “All compounds including comparator drugs were dissolved in an appropriate solvent at a concentration of 2.048 mg/mL and then serially diluted two-fold to provide the required concentrations.” left out

[6] = tested on: S. epidermidis (10) clinical isolates; assay: Susceptibility of clinical isolates (MIC); type: cell-based, Staphylococcus epidermidis
Description: as §2, with “All compounds including comparator drugs were dissolved in an appropriate solvent at a concentration of 2.048 mg/mL and then serially diluted two-fold to provide the required concentrations.” left out

[7] = tested on: LZD-resistant E. faecalis; assay: microbe, parasite or virus in culture; type: cell-based; conditions: Enterococcus faecalis
Description: (§3) 6 standard strains and 3 clinical isolates were used to the preliminary evaluation of in vitro antibacterial activities of oxazolidinone-fluoroquinolone hybrids.
as §2, with “All compounds including comparator drugs were dissolved in an appropriate solvent at a concentration of 2.048 mg/mL and then serially diluted two-fold to provide the required concentrations.” left out

[8] = tested on: S. pneumoniae (13) clinical isolates; assay: Susceptibility of clinical isolates (MIC); type: cell-based, Streptococcus pneumoniae
Description: as §2, with “All compounds including comparator drugs were dissolved in an appropriate solvent at a concentration of 2.048 mg/mL and then serially diluted two-fold to provide the required concentrations.” left out

[9] = tested on: S. aureus (46) clinical isolates; assay: Susceptibility of clinical isolates (MIC); type: cell-based, Staphylococcus aureus
Description: as §2, with “All compounds including comparator drugs were dissolved in an appropriate solvent at a concentration of 2.048 mg/mL and then serially diluted two-fold to provide the required concentrations.” left out

[10] = tested on: S. haemolyticus (32) clinical isolates; assay: Susceptibility of clinical isolates (MIC); type: cell-based, Staphylococcus haemolyticus
Description: as §2, with “All compounds including comparator drugs were dissolved in an appropriate solvent at a concentration of 2.048 mg/mL and then serially diluted two-fold to provide the required concentrations.” left out

[11] = tested on: E. faecium (47) clinical isolates; assay: Susceptibility of clinical isolates (MIC); type: cell-based, Enterococcus faecium
Description: as §2, with “All compounds including comparator drugs were dissolved in an appropriate solvent at a concentration of 2.048 mg/mL and then serially diluted two-fold to provide the required concentrations.” left out

[12] = tested on: S. suis (9) clinical isolates; assay: Susceptibility of clinical isolates (MIC); type: cell-based, Streptococcus suis; conditions: Streptococcus suis
Description: as §2, with “All compounds including comparator drugs were dissolved in an appropriate solvent at a concentration of 2.048 mg/mL and then serially diluted two-fold to provide the required concentrations.” left out

MRSE = assay: MIC against drug-resistant strain; type: cell-based, S. epidermidis; conditions: Staphylococcus epidermidis
Description: as §3
as §2, with “All compounds including comparator drugs were dissolved in an appropriate solvent at a concentration of 2.048 mg/mL and then serially diluted two-fold to provide the required concentrations.” left out

[13] = tested on: VAN and quinolone-resistant E. faecium; assay: MIC against drug-resistant strain; type: cell-based; conditions: Enterococcus faecium
Description: as §3
as §2, with “All compounds including comparator drugs were dissolved in an appropriate solvent at a concentration of 2.048 mg/mL and then serially diluted two-fold to provide the required concentrations.” left out

[14] = tested on: LZD and quinolone-resistant E. faecium; assay: MIC against drug-resistant strain; type: cell-based; conditions: Enterococcus faecium
Description: as §3
as §2, with “All compounds including comparator drugs were dissolved in an appropriate solvent at a concentration of 2.048 mg/mL and then serially diluted two-fold to provide the required concentrations.” left out

MRSA = assay: MIC against drug-resistant strain; type: cell-based; conditions: Staphylococcus aureus
Description: as §3
as §2, with “All compounds including comparator drugs were dissolved in an appropriate solvent at a concentration of 2.048 mg/mL and then serially diluted two-fold to provide the required concentrations.” left out

[15] = tested on: VAN and quinolone-resistant S. pneumoniae; assay: MIC against drug-resistant strain; type: cell-based; conditions: Streptococcus pneumoniae
Description: as §3
as §2, with “All compounds including comparator drugs were dissolved in an appropriate solvent at a concentration of 2.048 mg/mL and then serially diluted two-fold to provide the required concentrations.” left out

CIP-resistant S. aureus = assay: MIC against drug-resistant strain; type: cell-based; conditions: Staphylococcus aureus
Description: as §3
as §2, with “All compounds including comparator drugs were dissolved in an appropriate solvent at a concentration of 2.048 mg/mL and then serially diluted two-fold to provide the required concentrations.” left out

[16] = tested on: CIP-resistant S. haemolyticus; assay: MIC against drug-resistant strain; type: cell-based; conditions: Staphylococcus haemolyticus
Description: as §3
as §2, with “All compounds including comparator drugs were dissolved in an appropriate solvent at a concentration of 2.048 mg/mL and then serially diluted two-fold to provide the required concentrations.” left out

MIC [1]: 0.25 µg/mL (≈ 0.416 µM)
MIC (MRSA (13B262)): 1 µg/mL (≈ 1.66 µM)
MIC (VRE (13B330)): 1 µg/mL (≈ 1.66 µM)
MIC [2]: 0.5 µg/mL (≈ 0.831 µM)
MIC [3]: 64 µg/mL (≈ 106 µM)
MIC (E. coli (ATCC25922)): 4 µg/mL (≈ 6.65 µM)
MIC (S. aureus (ATCC29213)): 0.25 µg/mL (≈ 0.416 µM)
MIC [4]: 0.25 µg/mL (≈ 0.416 µM)
MIC (E. faecalis (ATCC29212)): 1 µg/mL (≈ 1.66 µM)
SMILES: C[C@H]1COc2c(N3CCC(O)(COc4ccc(N5C[C@H](CO)OC5=O)cc4F)CC3)c(F)cc3c(=O)c(C(=O)O)cn1c23 [OBP-2]

MIC [1]: 0.5 µg/mL (≈ 0.811 µM)
MIC (MRSA (13B262)): 2 µg/mL (≈ 3.24 µM)
MIC (VRE (13B330)): 2 µg/mL (≈ 3.24 µM)
MIC [2]: 2 µg/mL (≈ 3.24 µM)
MIC [3]: 128 µg/mL (≈ 208 µM)
MIC (E. coli (ATCC25922)): 64 µg/mL (≈ 104 µM)
MIC (S. aureus (ATCC29213)): 2 µg/mL (≈ 3.24 µM)
MIC [4]: 0.5 µg/mL (≈ 0.811 µM)
MIC (E. faecalis (ATCC29212)): 1 µg/mL (≈ 1.62 µM)
SMILES: C[C@H]1COc2c(N3CCC(O)(COc4ccc(N5C[C@H](CO)OC5=O)cc4F)CC3)c(F)c(N)c3c(=O)c(C(=O)O)cn1c23 [OBP-3]

MIC [1]: 2 µg/mL (≈ 3.51 µM)
MIC (MRSA (13B262)): 64 µg/mL (≈ 112 µM)
MIC (VRE (13B330)): 64 µg/mL (≈ 112 µM)
MIC [2]: 0.016 µg/mL (≈ 0.0281 µM)
MIC [3]: 16 µg/mL (≈ 28.1 µM)
MIC (E. coli (ATCC25922)): 1 µg/mL (≈ 1.76 µM)
MIC (S. aureus (ATCC29213)): 0.062 µg/mL (≈ 0.109 µM)
MIC [4]: 0.5 µg/mL (≈ 0.878 µM)
MIC (E. faecalis (ATCC29212)): 4 µg/mL (≈ 7.02 µM)
SMILES: CN1COc2c(N3CC4C(C3)C4Nc3ccc(N4C[C@H](CO)OC4=O)cc3F)c(F)cc3c(=O)c(C(=O)O)cn1c23 (some centres unmarked) [OBP-6]

MIC [1]: 4 µg/mL (≈ 7.24 µM)
MIC (MRSA (13B262)): 128 µg/mL (≈ 232 µM)
MIC (VRE (13B330)): 128 µg/mL (≈ 232 µM)
MIC [2]: 0.031 µg/mL (≈ 0.0561 µM)
MIC [3]: 64 µg/mL (≈ 116 µM)
MIC (E. coli (ATCC25922)): 0.5 µg/mL (≈ 0.905 µM)
MIC (S. aureus (ATCC29213)): 0.25 µg/mL (≈ 0.452 µM)
MIC [4]: 2 µg/mL (≈ 3.62 µM)
MIC (E. faecalis (ATCC29212)): 1 µg/mL (≈ 1.81 µM)
SMILES: O=C(O)c1cn(C2CC2)c2cc(N3CC4C(C3)C4Nc3ccc(N4C[C@H](CO)OC4=O)cc3F)c(F)cc2c1=O (some centres unmarked) [OBP-7]

SMILES: CN[C@H](CC(C)C)C(=O)N[C@H]1C(=O)N[C@@H](CC(N)=O)C(=O)N[C@H]2C(=O)N[C@H]3C(=O)N[C@H](C(=O)N[C@H](C(=O)O)c4cc(O)cc(O)c4-c4cc3ccc4O)[C@H](O)c3ccc(c(Cl)c3)Oc3cc2cc(c3O[C@@H]2O[C@H](CO)[C@@H](O)[C@H](O)[C@H]2O[C@H]2C[C@](C)(N)[C@H](O)[C@H](C)O2)Oc2ccc(cc2Cl)[C@H]1O [VAN, vancomycin]
MIC50 [5]: 8 µg/mL (≈ 5.52 µM)
MIC90 [5]: > 32 µg/mL
CLSI %S (susceptible) ([6]; S. epidermidis clinical isolates, CLSI criteria): 100.0/- %
MIC50 ([6]; Staphylococcus epidermidis): 1 µg/mL (≈ 0.69 µM)
MIC90 ([6]; Staphylococcus epidermidis): 2 µg/mL (≈ 1.38 µM)
MIC ([6]; Staphylococcus epidermidis, read-out: MIC Range): 1 to 2 µg/mL (≈ 0.69 to 1.38 µM)
MIC [7]: 2 µg/mL (≈ 1.38 µM)
CLSI %S (susceptible) ([8]; S. pneumoniae clinical isolates, CLSI criteria): 53.8/- %
MIC50 ([8]; Streptococcus pneumoniae): 1 µg/mL (≈ 0.69 µM)
MIC90 ([8]; Streptococcus pneumoniae): 32 µg/mL (≈ 22.1 µM)
CLSI %S (susceptible) ([9]; S. aureus clinical isolates, CLSI criteria): 100.0/- %
MIC50 ([9]; Staphylococcus aureus): 0.5 µg/mL (≈ 0.345 µM)
MIC90 ([9]; Staphylococcus aureus): 0.5 µg/mL (≈ 0.345 µM)
MIC ([9]; Staphylococcus aureus, read-out: MIC Range): 0.25 to 0.5 µg/mL (≈ 0.173 to 0.345 µM)
CLSI %S (susceptible) ([10]; S. haemolyticus clinical isolates, CLSI criteria): 96.2/- %
MIC50 ([10]; Staphylococcus haemolyticus): 0.5 µg/mL (≈ 0.345 µM)
MIC90 ([10]; Staphylococcus haemolyticus): 2 µg/mL (≈ 1.38 µM)
MIC ([10]; Staphylococcus haemolyticus, read-out: MIC Range): 0.0625 to 4 µg/mL (≈ 0.0431 to 2.76 µM)
CLSI %S (susceptible) ([11]; E. faecium clinical isolates, CLSI criteria): 100.0/- %
MIC Range ([11]; E. faecium, 47 clinical isolates): 0.5 to 4 µg/mL
MIC50 ([11]; Enterococcus faecium): 2 µg/mL (≈ 1.38 µM)
MIC90 ([11]; Enterococcus faecium): 4 µg/mL (≈ 2.76 µM)
MIC50 [12]: 0.25 µg/mL (≈ 0.173 µM)
MIC90 [12]: 2 µg/mL (≈ 1.38 µM)
MIC ([12]; read-out: MIC Range): 0.125 to 2 µg/mL (≈ 0.0863 to 1.38 µM)
MIC (MRSE): 1 µg/mL (≈ 0.69 µM)
MIC [13]: 16 µg/mL (≈ 11 µM)
MIC [14]: 4 µg/mL (≈ 2.76 µM)
MIC (MRSA): 1 µg/mL (≈ 0.69 µM)
MIC [15]: > 32 µg/mL
MIC (CIP-resistant S. aureus): 0.25 µg/mL (≈ 0.173 µM)
MIC [16]: 2 µg/mL (≈ 1.38 µM)
